# Source: ChEMBL document CHEMBL1142996 (J Med Chem, 2007)
# Non-standard residues stand in square brackets, D forms with d. Residues, ends and D or L forms follow the SMILES beside them. Phe(4-NH2) = Nc1ccc(C[C@H](N)C(=O)O)cc1
# Biological target: T1, Angiotensin II receptor (AT-1) type-1 (Rattus norvegicus, UniProt P29089+P25095)
# T1 sequence (P29089 whole entry): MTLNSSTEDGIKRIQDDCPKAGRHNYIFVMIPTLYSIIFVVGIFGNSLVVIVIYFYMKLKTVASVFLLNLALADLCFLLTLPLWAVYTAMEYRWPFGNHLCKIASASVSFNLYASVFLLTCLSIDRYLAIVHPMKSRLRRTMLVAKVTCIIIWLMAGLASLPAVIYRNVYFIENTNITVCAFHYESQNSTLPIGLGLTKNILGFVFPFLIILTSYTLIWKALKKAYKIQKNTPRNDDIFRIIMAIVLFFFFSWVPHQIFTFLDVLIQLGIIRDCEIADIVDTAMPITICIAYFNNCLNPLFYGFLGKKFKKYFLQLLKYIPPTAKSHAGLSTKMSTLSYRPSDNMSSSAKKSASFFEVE
# T1 sequence (P25095 whole entry): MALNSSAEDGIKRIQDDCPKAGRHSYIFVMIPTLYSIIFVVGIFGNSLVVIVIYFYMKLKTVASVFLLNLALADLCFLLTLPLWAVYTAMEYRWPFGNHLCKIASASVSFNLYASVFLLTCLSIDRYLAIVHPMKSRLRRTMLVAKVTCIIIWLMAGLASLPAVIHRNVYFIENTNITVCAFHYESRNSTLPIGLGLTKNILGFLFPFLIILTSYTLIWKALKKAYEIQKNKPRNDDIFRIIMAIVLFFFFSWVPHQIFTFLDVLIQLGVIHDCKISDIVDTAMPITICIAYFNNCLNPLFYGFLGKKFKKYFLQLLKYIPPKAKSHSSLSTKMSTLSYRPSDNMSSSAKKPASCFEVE
# Assay: Displacement of [125I]Ang2 from AT1 receptor in rat liver membrane
# Assay type: cell membranes
row,Structure (SMILES),Ki [µM]
1,O=C(N[C@@H](Cc1ccccc1)C(=O)O)c1cccc(Cc2cnc[nH]2)c1,> 10
2,O=C(N[C@@H](Cc1ccccc1)C(=O)O)c1cccc(Cn2ccnc2)c1,> 10
3,CC[C@@H](C)[C@H](NC(=O)c1cccc(Cc2cnc[nH]2)c1)C(=O)O,> 10
4,CC[C@H](C)[C@H](NC(=O)[C@@H]1CCCN1C(=O)[C@H](Cc1cnc[nH]1)NC(C)=O)C(=O)O (Ac-His-Pro-Ile-OH),> 10
5,CC(=O)N[C@@H](Cc1cnc[nH]1)C(=O)N1CCC[C@H]1C(=O)N[C@@H](Cc1ccccc1)C(=O)O (Ac-His-Pro-Phe-OH),> 10
6,CC[C@H](C)[C@H](NC(=O)[C@H](Cc1ccc(O)cc1)NC(=O)[C@@H](NC(=O)[C@H](CCCNC(=N)N)NC(=O)[C@@H](N)CC(=O)O)C(C)C)C(=O)N[C@@H](Cc1ccc(N)cc1)C(=O)N1CCC[C@H]1C(=O)N[C@@H](Cc1ccccc1)C(=O)O (H-DRVYI[Phe(4-NH2)]PF-OH),> 10
7,N[C@@H](Cc1cnc[nH]1)C(=O)N1CCC[C@H]1C(=O)N[C@@H](Cc1ccccc1)C(=O)O (H-His-Pro-Phe-OH),1.598

# Next, values leading:
row,Ki [µM],Structure (SMILES)
1,> 10,CC[C@@H](C)[C@H](NC(=O)[C@@H]1CCCN1C(=O)c1cccc(Cn2ccnc2)c1)C(=O)O
2,> 10,O=C(O)[C@H](Cc1ccccc1)NC(=O)[C@@H]1CCCN1C(=O)c1cccc(Cc2cnc[nH]2)c1
3,> 10,O=C(O)[C@H](Cc1ccccc1)NC(=O)[C@@H]1CCCN1C(=O)c1cccc(Cn2ccnc2)c1
4,> 10,CC[C@@H](C)[C@H](NC(=O)[C@@H]1CCCN1C(=O)c1cccc(Cc2cnc[nH]2)c1)C(=O)O
5,> 10,CC[C@@H](C)[C@H](NC(=O)c1cccc(Cn2ccnc2)c1)C(=O)O
6,> 10,CC[C@H](C)[C@H](NC(=O)[C@@H]1CCCN1C(=O)[C@@H](N)Cc1cnc[nH]1)C(=O)O (H-His-Pro-Ile-OH)
